Test results reported in paper PMC6173406, “Design and evaluation of selective butyrylcholinesterase inhibitors based on Cinchona alkaloid scaffold” (PLoS ONE, 2018).

Columns and labels:
[1] = target: T1, human AChE (Homo sapiens, UniProt P22303); assay: Reversible inhibition of human AChE, Ellman method with ATCh, Hunter-Downs analysis; format: biochemical; parameters: key to AChE type of inhibition: c, n and m stands for competitive, noncompetitive and mixed type of inhibition; c, n and m stands for competitive, noncompetitive and mixed type of inhibition; c, n and m stands for competitive, noncompetitive and mixed type of inhibition; details: for Ki: enzyme-inhibitor dissociation constant ± standard error, ATCh 0.050–0.50 mM, pH 7.4, 25 °C; for AChE Ks: enzyme-substrate (ATCh) dissociation constant derived from the inhibition kinetics with the compound; for AChE type of inhibition: symbol in brackets after Ki
T1 construct: gift of Dr. F. Nachon (Département de Toxicologie, Armed Forces Biomedical Research Institute, France)
T1 sequence (P22303 32-614): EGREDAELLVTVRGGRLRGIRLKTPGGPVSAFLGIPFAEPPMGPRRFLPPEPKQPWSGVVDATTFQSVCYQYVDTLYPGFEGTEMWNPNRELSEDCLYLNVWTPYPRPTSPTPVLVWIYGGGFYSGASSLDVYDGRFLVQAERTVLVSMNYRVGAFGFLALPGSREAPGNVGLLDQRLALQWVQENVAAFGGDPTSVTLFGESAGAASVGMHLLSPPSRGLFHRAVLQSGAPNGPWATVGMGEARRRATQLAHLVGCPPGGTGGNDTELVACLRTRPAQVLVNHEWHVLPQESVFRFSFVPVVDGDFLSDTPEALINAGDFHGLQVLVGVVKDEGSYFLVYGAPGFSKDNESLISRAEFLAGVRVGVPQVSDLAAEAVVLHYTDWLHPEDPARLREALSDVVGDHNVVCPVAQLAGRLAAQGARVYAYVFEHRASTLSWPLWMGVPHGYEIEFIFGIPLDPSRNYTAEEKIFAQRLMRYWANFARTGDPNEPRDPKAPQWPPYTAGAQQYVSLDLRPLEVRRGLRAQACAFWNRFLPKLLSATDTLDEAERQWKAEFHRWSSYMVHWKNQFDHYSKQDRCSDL
Method: (§1) Purified human BChE and recombinant human AChE were kindly provided by Dr. F. Nachon (Département de Toxicologie, Armed Forces Biomedical Research Institute, France). The concentration of enzymes (BChE: 5.6 μM; AChE: 0.20 μM) was determined as described previously. The concentrated stocks of enzymes were diluted in a phosphate sodium buffer 0.1 M (pH 7.4) containing 0.1% BSA.
(§2) Enzyme activities were measured spectrophotometrically by Ellman method at 412 nm using 0.30 mM DTNB as thiol reagent and ATCh (0.050–0.50 mM) as substrate in 0.1 M phosphate buffer, pH 7.4 [29, 30]. For the inhibition, the reaction mixture also contained cinchonidines or cinchonines (final concentrations 0.020–200 μM, depending on compound). In the case of compounds CD-(pCl) and CN-(pCl), the final content of DMSO was the same in enzyme activity measurement and in inhibition measurements, up to 0.32%. No side interactions of tested compounds with ATCh or DTNB were detected. Measurements were done at 25 °C on a Tecan Infinite M200Pro plate reader (Austria).
(§3) The reversible inhibition of BChE and AChE by cinchonines and cinchonidines was measured by determining the decrease of enzyme activity towards ATCh (0.050–0.50 mM) in their presence. The activities of the enzymes were measured at different substrate concentrations ([S]) in the absence (v0) and presence (vi) of given cinchonines and cinchonidines concentration ([I]) selected to inhibit the enzymes for 20–80%. At least three concentrations of inhibitors for each substrate concentration were used in at least two experiments. The apparent dissociation inhibition constant (Ki,app) was calculated using the Hunter-Downs equation and the linear regression analysis: Ki,app=vi/v0−vi⋅[I]=K(I)+K(I)/K(S)⋅[S] where y-intercept determines the enzyme-inhibitor dissociation constants (K(I)), while x-intercept determines the enzyme-substrate dissociation constant, K(S). The equation was used with the assumption that the substrate, due to relatively low substrate concentrations used in experiments, binds only to the catalytic site, while inhibitor can bind to both sites catalytic and peripheral site. In other words, if the inhibitor competes with substrate for binding to the catalytic site of the enzyme, Ki,app proportionally depend on the substrate concentration. […] The curve means that the inhibitor binds not only to the catalytic or peripheral site but also to intermediates of Michaelis type of the enzyme-substrate complex.

[2] = target: T2, human BChE (Homo sapiens, UniProt P06276); assay: Reversible inhibition of human BChE, Ellman method with ATCh, Hunter-Downs analysis; format: biochemical; parameters: key to BChE type of inhibition: c, n and m stands for competitive, noncompetitive and mixed type of inhibition; c, n and m stands for competitive, noncompetitive and mixed type of inhibition; c, n and m stands for competitive, noncompetitive and mixed type of inhibition; details: for Ki: enzyme-inhibitor dissociation constant ± standard error, ATCh 0.050–0.50 mM, pH 7.4, 25 °C; for BChE Ks: enzyme-substrate (ATCh) dissociation constant derived from the inhibition kinetics with the compound; for Ki(AChE)/ Ki (BChE): inhibition selectivity, ratio of Ki constants for AChE and BChE
T2 construct: gift of Dr. F. Nachon (Département de Toxicologie, Armed Forces Biomedical Research Institute, France)
T2 sequence (P06276 29-602): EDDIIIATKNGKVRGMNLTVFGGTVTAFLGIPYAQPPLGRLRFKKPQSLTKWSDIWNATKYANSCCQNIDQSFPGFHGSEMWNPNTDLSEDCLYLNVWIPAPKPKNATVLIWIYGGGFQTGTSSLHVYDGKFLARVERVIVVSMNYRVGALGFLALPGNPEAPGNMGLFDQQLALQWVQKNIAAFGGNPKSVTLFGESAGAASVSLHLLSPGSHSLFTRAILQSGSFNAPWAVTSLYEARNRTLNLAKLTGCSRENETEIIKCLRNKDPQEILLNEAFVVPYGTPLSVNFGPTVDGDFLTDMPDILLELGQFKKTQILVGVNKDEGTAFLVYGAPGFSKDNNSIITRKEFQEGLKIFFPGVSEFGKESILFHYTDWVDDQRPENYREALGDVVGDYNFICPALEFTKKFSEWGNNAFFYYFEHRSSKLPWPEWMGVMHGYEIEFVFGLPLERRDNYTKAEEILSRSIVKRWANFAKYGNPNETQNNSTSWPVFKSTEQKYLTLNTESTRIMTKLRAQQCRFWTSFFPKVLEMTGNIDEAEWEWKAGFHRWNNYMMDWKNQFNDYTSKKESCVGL
Method: as §1, §2, §3

C=C[C@H]1C[N@@]2CC[C@H]1C[C@@H]2[C@@H](O)c1ccnc2ccccc12 [CN, cinchonine, reference compound]
Ki [1]: 34 ± 1 µM | AChE Ks [1]: 0.25 ± 0.01 mM | AChE type of inhibition [1]: c | Ki [2]: 4.9 ± 1.4 µM | BChE Ks [2]: 0.50 ± 0.27 mM | BChE type of inhibition ([2]; symbol in brackets after Ki): c

C=CC1C[N+]2(Cc3cccc(Br)c3)CCC1CC2C(O)c1ccnc2ccccc12 (stereo not shown) [CN-(mBr)]
Ki [1]: 39 ± 2 µM | AChE Ks [1]: 0.73 ± 0.08 mM | AChE type of inhibition [1]: m | Ki [2]: 2.3 ± 0.2 µM | BChE Ks [2]: 0.48 ± 0.09 mM | Ki(AChE)/ Ki (BChE) [2]: 17 | BChE type of inhibition ([2]; symbol in brackets after Ki): m

C=CC1C[N+]2(Cc3cccc(C)c3)CCC1CC2C(O)c1ccnc2ccccc12 (stereo not shown) [CN-(mCH3), N-(3-methylbenzyl) cinchoninium bromide]
Ki [1]: 49 ± 2 µM | AChE Ks [1]: 0.66 ± 0.06 mM | AChE type of inhibition [1]: m | Ki [2]: 4.6 ± 0.4 µM | BChE Ks [2]: 0.53 ± 0.00 mM | Ki(AChE)/ Ki (BChE) [2]: 11 | BChE type of inhibition ([2]; symbol in brackets after Ki): m

C=CC1C[N+]2(Cc3cccc(Cl)c3)CCC1CC2C(O)c1ccnc2ccccc12 (stereo not shown) [CN-(mCl)]
Ki [1]: 56 ± 8 µM | AChE Ks [1]: 0.19 ± 0.03 mM | AChE type of inhibition [1]: c | Ki [2]: 5.4 ± 0.5 µM | BChE Ks [2]: 0.63 ± 0.12 mM | Ki(AChE)/ Ki (BChE) [2]: 10 | BChE type of inhibition ([2]; symbol in brackets after Ki): m

C=CC1C[N+]2(Cc3cccc([N+](=O)[O-])c3)CCC1CC2C(O)c1ccnc2ccccc12 (stereo not shown) [CN-(mNO2)]
Ki [1]: 8.6 ± 0.5 µM | AChE Ks [1]: 0.72 ± 0.10 mM | AChE type of inhibition [1]: m | Ki [2]: 4.2 ± 0.3 µM | BChE Ks [2]: 0.35 ± 0.04 mM | Ki(AChE)/ Ki (BChE) [2]: 2.1 | BChE type of inhibition ([2]; symbol in brackets after Ki): m

C=CC1C[N+]2(Cc3ccc(Br)cc3)CCC1CC2C(O)c1ccnc2ccccc12 (stereo not shown) [CN-(pBr)]
Ki [1]: 31 ± 1 µM | AChE Ks [1]: 2.7 ± 0.9 mM | AChE type of inhibition [1]: m | Ki [2]: 3.5 ± 0.3 µM | BChE Ks [2]: 0.44 ± 0.07 mM | Ki(AChE)/ Ki (BChE) [2]: 8.8 | BChE type of inhibition ([2]; symbol in brackets after Ki): c

C=CC1C[N+]2(Cc3ccc(C)cc3)CCC1CC2C(O)c1ccnc2ccccc12 (stereo not shown) [CN-(pCH3), N-(4-methylbenzyl) cinchoninium bromide]
Ki [1]: 42 ± 2 µM | AChE Ks [1]: 2.0 ± 0.2 mM | AChE type of inhibition [1]: c | Ki [2]: 3.1 ± 0.3 µM | BChE Ks [2]: 0.33 ± 0.05 mM | Ki(AChE)/ Ki (BChE) [2]: 13 | BChE type of inhibition ([2]; symbol in brackets after Ki): c

C=CC1C[N+]2(Cc3ccc(Cl)cc3)CCC1CC2C(O)c1ccnc2ccccc12 (stereo not shown) [CN-(pCl)]
Ki [1]: 40 ± 4 µM | AChE type of inhibition [1]: n | Ki [2]: 6.2 ± 0.8 µM | BChE Ks [2]: 0.49 ± 0.12 mM | Ki(AChE)/ Ki (BChE) [2]: 6.4 | BChE type of inhibition ([2]; substrate concentrations higher than 0.35 mM, deviation from linearity in Hunter-Downs plot): mixed inhibition | BChE type of inhibition ([2]; symbol in brackets after Ki): m

C=CC1C[N+]2(Cc3ccc([N+](=O)[O-])cc3)CCC1CC2C(O)c1ccnc2ccccc12 (stereo not shown) [CN-(pNO2)]
Ki [1]: 51 ± 2 µM | AChE type of inhibition [1]: n | Ki [2]: 7.6 ± 0.7 µM | BChE Ks [2]: 0.32 ± 0.04 mM | Ki(AChE)/ Ki (BChE) [2]: 6.6 | BChE type of inhibition ([2]; symbol in brackets after Ki): c

C=CC1C[N+]2(Cc3ccccc3)CCC1CC2C(O)c1ccnc2ccccc12 (stereo not shown) [CN-Bzl]
AChE affinity lower than for the highest-affinity compounds ([1]; compared to CD-(mNO2) and CD-(mCH3)): ~50 times | Ki [1]: 121 ± 12 µM | AChE Ks [1]: 1.1 ± 0.4 mM | AChE type of inhibition [1]: m | Ki [2]: 2.9 ± 0.3 µM | BChE Ks [2]: 0.29 ± 0.04 mM | Ki(AChE)/ Ki (BChE) [2]: 42 | BChE type of inhibition ([2]; symbol in brackets after Ki): c

C=CC1C[N+]2(C)CCC1CC2C(O)c1ccnc2ccccc12 (stereo not shown) [CN-Met]
Ki [1]: 42 ± 4 µM | AChE Ks [1]: 0.32 ± 0.05 mM | AChE type of inhibition [1]: c | Ki [2]: 29 ± 4 µM | BChE Ks [2]: 0.35 ± 0.07 mM | BChE affinity lower compared to CD-(pBr) ([2]; fold lower affinity than CD-(pBr)): approximately 730 times | BChE type of inhibition ([2]; symbol in brackets after Ki): c
